For 103 compounds, cytotoxicity results are on record in ChEMBL document CHEMBL3507680, “University of Dundee, Gates Library screen for HepG2 cell viability”.

The series can be described thus: Human HepG2 cell viability assay in 384 well format. The class given is toxicity, cell-based. Also noted: dose 125 nL, time 70.5 hour; concentration not given beside the values. As to conditions: HepG2 cells, read-out: Inhibition.

For `Cc1ccc(S(=O)(=O)Nc2c(C)nn(C)c2C)cc1C`, the cytotoxicity at 70.5 h was -5.46%.
As for `O=C(CNC(=O)c1ccccc1F)NCc1ccccn1`, the figure is -7.71%; as for `CC(C)n1nnnc1-c1ccc(NC(=O)CC(F)(F)F)cc1F`, -1.35%.
Turning to `COCc1ccccc1NCc1csc(NC(C)=O)n1`, the cytotoxicity at 70.5 h was -7.46%.
Regarding `Cc1cc(C)n(CCCNC(=O)C2CCCO2)n1` (stereo not drawn), the cytotoxicity at 70.5 h is 2.61%.
Under `O=C1CN(Cc2occc2C(=O)NCCc2ccc(F)cc2)CCN1` stands 2.4%.
As for `CC(C)n1nnnc1-c1ccc(NC(=O)N(C)CCN(C)C)cc1F`, the figure is -7.88%; as for `Cn1cc(C(O)CNC(=O)c2sccc2OC(F)F)cn1` (stereo not drawn), -4.33%; as for `Cc1cccc(OCC(=O)NS(=O)(=O)Cc2ccccc2)c1`, -5.52%.
Under `O=C(COc1ccccc1)NS(=O)(=O)Cc1ccccc1` stands -1.17%; under `CC(=O)c1cccc(OCCCC(=O)N(C)C2CCN(C)CC2)c1`, -7.34%; under `Cc1nc(C)n(CC2CCCN2Cc2ccc(F)cc2C#N)n1` (stereo not drawn), 5.18%.
On to `O=C(Nc1ccc(N2CCCCC2)cn1)C1CCCN1C(=O)C1CC1` (stereo not drawn), for which the cytotoxicity at 70.5 h is -4.38%.
On to `CC(C)CN(C(=O)COc1ccc(C(N)=O)cc1)C1CCN(C)CC1`, for which the cytotoxicity at 70.5 h was -4.39%.
Under `CCC(CC)(CNC(=O)OC(C)(C)C)NC(=O)c1cnccn1` stands 0.78%.
As for `Cc1csc(-c2ccc(NC(=O)N3CCOCC3)cc2)n1`, the figure is -0.264%; as for `OCCN1CCN(CC2(O)CCCCC2)CC1`, 0.0783%.
As for `Cc1ccccc1C(O)CNC(=O)Cc1ccc(F)cc1` (stereo not drawn), the figure is -2.44%.
Consider `Cc1cc(OC(F)F)c(C(=O)NCC(O)c2cccc(F)c2)s1` (stereo not drawn), for which the cytotoxicity at 70.5 h turned out to be 6.81%.
As for `O=C1CC(C(=O)Nc2nnc(-c3cccs3)[nH]2)c2ccccc2N1` (stereo not drawn), the figure is -2.83%; as for `CC(C)(CNC(=O)C1(c2ccccc2)CCOCC1)C(=O)O`, -1.55%.
Under `Cc1cccc(N2CCC(NC(C)c3cccs3)CC2)n1` (stereo not drawn) stands 10.3%; under `O=C(O)CCNC(=O)C1(c2cccc(Br)c2)CCOCC1`, -0.861%; under `OCCN1CCN(Cc2cc(Cl)cc3cccnc23)CC1`, 4.47%.
For the compound `Cc1noc(CN(Cc2ccco2)Cc2cccc3c2OCO3)n1`, the cytotoxicity at 70.5 h was -1.63%.
Under `Cc1noc(CN(Cc2ccc3c(c2)OCCO3)Cc2ccco2)n1` stands -3.69%; under `Cc1ncc2c(n1)CN(CC1CCCCO1)CC2` (stereo not drawn), 5.6%; under `Clc1cc(CN2CCCN3CCCC3C2)c2ncccc2c1` (stereo not drawn), -2.91%.
Under `CN1CCOC(CNCc2nc(-c3ccoc3)no2)C1` (stereo not drawn) stands -6.11%; under `Cc1cc(C2CCCN(C(=O)COc3cccc(F)c3)C2)n[nH]1` (stereo not drawn), -5.26%.
Under `CCOC(=O)N(C)C1CCN(Cc2csc(C)n2)CC1` stands 2.22%; under `CCN(C(=O)CN1CCCC1c1c(C)nn(C)c1OC)C1CC1` (stereo not drawn), -6.09%; under `CCc1nccn1CC1CCCN1S(=O)(=O)N1CCCOCC1` (stereo not drawn), 23.7%.
For `CCCn1nnnc1COC(=O)C1Cc2cc(Cl)ccc2O1` (stereo not drawn), the cytotoxicity at 70.5 h was -9.18%.
Under `Cc1ccccc1C(=O)NCC(=O)NCc1ccccn1` stands 15.5%.
As for `COc1cccc(CN(C)Cc2c(C)noc2C)c1OC`, the figure is -3.33%; as for `O=C1CN(C(=O)c2cc3ccc(Br)cc3[nH]2)CCN1`, -9.95%; as for `COc1cccc(CCC(=O)Nc2ccn(C)n2)c1OC`, -10%.
As for `CCOc1ccc2cc(C(=O)NCCC(=O)N(C)C)[nH]c2c1`, the figure is -7.75%.
Turning to `Cc1cc(CNCC2CNc3ccnn3C2)no1` (stereo not drawn), the cytotoxicity at 70.5 h is 19.3%.
Under `COC1CCN(c2ccc(F)cc2CN(C)C(C)C(N)=O)CC1` (stereo not drawn) stands -1.51%; under `Cc1ccc(-c2noc(Cn3nc(C(N)=O)ccc3=O)n2)cc1`, -8.12%; under `CN(Cc1ccc(C#N)cc1)CC1CCS(=O)(=O)C1` (stereo not drawn), -8.96%.
As for `COc1c(C2CCCN2CC(=O)N(C)c2nccs2)c(C)nn1C` (stereo not drawn), the figure is 0.589%.
For `COc1cc(C)c(S(=O)(=O)CC(=O)N(C)C(C)C)cc1OC`, the cytotoxicity at 70.5 h was -5.84%.
As to `O=C(CNC(=O)c1ccccc1I)NCc1ccccc1F`, the cytotoxicity at 70.5 h was -10.2%.
Turning to `CCn1ccnc1CNCc1ccc(C)cc1OC(C)(C)C`, the cytotoxicity at 70.5 h was -11%.
`Cc1nc(NC(=O)C(C)N(C)Cc2cccc(C#N)c2)sc1C` (stereo not drawn): the cytotoxicity at 70.5 h came to 15.8%.
Under `Cc1ccc(CNC(=O)NCc2nccn2C)c(OC(C)(C)C)c1` stands -2.56%.
As for `CCCn1nnnc1COC(=O)C1COc2ccccc2O1` (stereo not drawn), the figure is -6.23%; as for `CCSCc1cccc(NCc2cccnc2)c1`, -14.7%.
As for `COc1cccc(CN(C)C(C)C(=O)Nc2nc(C)c(C)s2)c1` (stereo not drawn), the figure is -11.4%; as for `Cc1cnn(CC2CCN(CC(O)Cn3cccn3)CC2)c1` (stereo not drawn), -6.24%; as for `CC(=O)N1CCC(NC(=O)c2ccccc2-n2cnnn2)CC1`, -3.54%.
Turning to `Cn1ccc(C(=O)N2CCCC2c2ccc3c(c2)OCCO3)cc1=O` (stereo not drawn), the cytotoxicity at 70.5 h is -2.74%.
Under `O=C(NC1CC1)c1cc(Cl)ccc1-n1cnnn1` stands -6.19%; under `COc1cccc(C2CCCN2C(=O)c2ccc(=O)n(C)c2)c1` (stereo not drawn), -3.72%.
Under `COC(=O)CCNC(=O)c1c[nH]cc1-c1ccccc1OC` stands -3.42%; under `CCC(C)NC(=O)CCNC(=O)c1c[nH]cc1-c1cccc(OC)c1` (stereo not drawn), 2.46%; under `N#Cc1cc(C#N)c(SCCC(=O)Nc2ccc(F)cc2)nc1N`, -12.6%.
Under `CCCNC(=O)NCc1nc(C)c(C)o1` stands 7.79%; under `CN(C)c1ccc(CNC2(c3ccc(F)cc3)CCOCC2)cc1F`, -7.63%; under `NC(=O)C1CCN(C(=O)CSC2CCCc3ccccc32)CC1` (stereo not drawn), 1.96%.
As to `Cc1nc(CNC(=O)NCC(F)(F)F)oc1C`, the cytotoxicity at 70.5 h worked out at 3.56%.
As for `COc1c(NS(=O)(=O)c2ccc(C)c(C)c2)c(C)nn1C`, the figure is 2.79%; as for `COCC(=O)N[C@H](C(=O)NC(C)c1cc(C)ccc1C)C(C)C` (stereo partly drawn), -0.855%.
Under `CCn1nc2c(cc1=O)CN(c1nc3ccccc3s1)CC2` stands 16.9%; under `O=C(CN1CCCNC1=O)N(Cc1ccccc1)CC(F)F`, 1.59%.
Under `COCC(=O)N[C@H](C(=O)NC(C)c1cccc(C)c1C)C(C)C` (stereo partly drawn) stands 0.118%; under `Cc1nc(-c2ccc(CC(=O)N3CCNC(=O)C3)cc2)cs1`, 9.75%; under `CC(C)c1nc(NC(=O)CCCn2cccc2)n(C)n1`, 3.43%.
On to `CC1CN(C(=O)C2(c3ccc(F)cc3F)CCOCC2)CCO1` (stereo not drawn), for which the cytotoxicity at 70.5 h was -2.6%.
As for `CCN(CC)Cc1ccccc1NCc1c(C)noc1C`, the figure is -0.774%.
Take `COc1ccc(CNCc2c(C)nc3sc(C)cn23)c(OC)c1OC`: the cytotoxicity at 70.5 h was 11.7%.
For the compound `Cn1cc(C(=O)N2CCCC2c2ccc3c(c2)OCO3)ccc1=O` (stereo not drawn), the cytotoxicity at 70.5 h was -1.44%.
As to `Cc1csc(C2(NCCC(=O)N3CCOCC3)CCCC2)n1`, the cytotoxicity at 70.5 h stood at 4.83%.
As for `COc1ccnc(N2CCN(Cc3ncc(C(C)(C)C)o3)CC2)n1`, the figure is 6.11%; as for `CC(C)(C)OC(=O)N1CCC(C(=O)NC2CCS(=O)(=O)C2)CC1` (stereo not drawn), -6.28%.
Turning to `CCc1ccc(CNC(=O)Nc2cc(C)on2)s1`, the cytotoxicity at 70.5 h is -9.95%.
For the compound `CCOc1ccc(C(=O)NCc2ccnc(N3CCCC3)c2)cn1`, the cytotoxicity at 70.5 h was -6.13%.
As for `CCn1cnnc1CNC(=O)N(C)Cc1c(F)cccc1Cl`, the figure is -8.68%; as for `CNS(=O)(=O)c1ccc(CNC(=O)Nc2cc(C)on2)s1`, -6.5%.
Under `Cc1ccc(C(=O)NCc2ccnc(N3CCN(C)CC3)c2)cn1` stands -10%; under `CN(C)C(=O)N1CCC(C(=O)NCCNc2ncccc2C#N)CC1`, -4.63%; under `CC(C)(C)c1cnc(CN2CCN(c3ncccn3)CC2)o1`, 6.21%.
As for `CCN1CCN(C2CCN(C(C(N)=O)c3ccc(F)cc3)CC2)C1=O` (stereo not drawn), the figure is 5.11%.
With `CCCN(CC1CC1)C(=O)Nc1ccc(N2CCSCC2)cc1C`, the cytotoxicity at 70.5 h is -8.14%.
As for `CCC(C)N(C)C(=O)Nc1ccc(N2CCSCC2)cc1C` (stereo not drawn), the figure is -5.01%.
As for `O=C(NCCCC(=O)N1Cc2ccccc2C1)NCc1ccsc1`, the figure is 5.3%; as for `CN1CCN(C2CCN(C(C(N)=O)c3ccccc3)CC2)C1=O` (stereo not drawn), -5.22%.
As for `Cc1csc(C2(NC(=O)NCCN3CCOCC3)CCC2)n1`, the figure is -8.41%; as for `CC(CNC(=O)c1ccc(F)cc1I)N1CCCC1` (stereo not drawn), 22%.
For the compound `NC(=O)COc1cccc(C(=O)NCc2ccc(Cl)s2)c1`, the cytotoxicity at 70.5 h is -11.8%.
Under `CN(Cc1ccc(Cl)s1)C(=O)COc1cccc(C(N)=O)c1` stands -26.8%; under `CNC(=O)CCS(=O)(=O)Cc1coc(-c2ccc(F)cc2)n1`, -20.2%; under `CC(C)c1noc(CN2CCC(c3nc4cc(Cl)ccc4o3)CC2)n1`, -19.1%.
Under `Cc1cc(CN2CCN(C(=O)Cc3ccccc3F)CC2)on1` stands -14%; under `Cc1nc(CN2CCC(c3nc4cc(Cl)ccc4o3)CC2)oc1C`, -19.4%.
As for `CN(CC(=O)N1CCN(c2ccccn2)CC1)c1ccc(Cl)cn1`, the figure is -17.2%; as for `NS(=O)(=O)CCCNC(=O)C1(c2cccc(Cl)c2)CC1`, -22.9%; as for `COc1ccc(C(=O)NS(=O)(=O)c2cncc(Br)c2)c(OC)c1`, -7.26%.
On to `O=C(CCNC(=O)N1CCC(c2ccccc2)C1)N1CCCCC1` (stereo not drawn), for which the cytotoxicity at 70.5 h is -13%.
Turning to `COc1cc(Br)c(CNC2CCCNC2=O)cc1OC` (stereo not drawn), the cytotoxicity at 70.5 h is -0.0651%.
